Measured values from patent US12022844B2, “Nutritional composition, food/drink composition using nutritional composition, and modified milk powder using nutritional composition” (priority 2018, dated 2024).

System: Bifidobacterium peseudocatenulatum ATCC27919
Experiment: Single bacterial culturing with HMO as sugar source, OD650
Type: cell-based, Bifidobacterium pseudocatenulatum
Settings: ATCC 27919^T, sugar source 2%, 8 h, Table 6
Experimental: A10% solution of glucose (manufactured by Nakarai Tesque Inc.), and 2′-FL ((≥95%) Funakoshi, available from sigma), and LNnT (manufactured by ELICITYL) as examples of HMOs was prepared with ion exchanged water, and was subjected to sterile filtration using Millex-GV (SLGV033RS).
Lactobacilli MRS Broth (BD) (0.05% L-Cysteine Hydrochloride for Bacteria of the genus Bifidobacterium) was added to strains of Table 1 below (bacteria belonging to Bifidobacterium bifidum) and Table 2 below. After a sterilization treatment, 3% of the bacterial solution was inoculated, and anaerobically cultured (pre-pre cultured) at 37° C. for 16 h. […]
OD650 was measured from each well in the plates in the above (4) and the above (5) before (0 h) culturing and after (8 h) culturing, by MICROPLATE READER SH-9000 (manufactured by CORONA ELECTRIC). […] After the DNA extraction, the number of proliferating bacteria of Bifidobacteria/lactobacilli was analyzed by using the bacterial species-specific primer noted in Table 4, by a quantitative PCR method (see “Structural analysis of intestinal flora”—analysis of bacterial flora in human feces using quantitative PCR—by Kouichi Watanabe, Enterobacteriological journal, 20:35-42, 2006).
Regarding strains in Table 2, each strain was cultured as a single bacterium by 2′-FL or LNnT (HMOs) as a sugar source, and OD650 was measured. […]

2′-fucosyllactose [2′-FL]
OD650 increase value: 0.02
